# Where a SMILES comes first, the peptide text is derived from it. The star is where a group is joined. 5FAM = O=C1OC2(c3ccc(O)cc3Oc3cc(O)ccc32)c2ccc(C(=O)*)cc21; X1 = CN(C)c1ccc(/N=N/c2ccc(C(=O)*)cc2)cc1
# Key:
# HL-60 cells = assay: Cellular uptake by flow cytometry on HL-60 cells; assay type: cell-based, human; details: 90 min, 37 °C, serum-free
# Procedure: HL-60 cells were cultured as described above. To study the cellular uptake of fluorescent labelled compounds, 10^5 cells per well were plated on 24-well plates. After 24 h incubation at 37 °C, cells were treated with the compounds solved in the corresponding serum-free media for 90 min. The cellular uptake was analysed at 1, 5 and 10 µM concentrations. Cells treated with serum-free media for 90 min were used as control. After incubation, treatment solutions were removed and the cells were treated with 100 μL trypsin for 2 min to remove the membrane proteins in order to eliminate non-specific binding of conjugates. The effect of trypsin was terminated by 900 μL HPMI (glucose, NaHCO3, NaCl, HEPES, KCl, MgCl2, CaCl2, Na2HPO4·2H2O) (Kapus et al. [1994]) containing 10% foetal calf serum, and the cells were transferred from the plate to FACS-tubes. Cells were centrifuged at 216 g at 4 °C for 5 min and the supernatant was removed. After this procedure, cells were resuspended in 500 µL HPMI, and the intracellular fluorescence intensity of HL-60 cells was monitored (on channel FITC LP505; emission at λ = 505 nm; LP 505, BP 530/30) by flow cytometry (BD LSR II, BD Bioscience, San Jose, CA, equipped with 488 nm; Coherent Sapphire, 22 mW laser.) which is proportional to the cellular uptake. Data were analysed with FACSDiVa 5.0 software.
# HeLa cells = assay: Confocal microscopy of internalisation into HeLa cells; assay type: cell-based, human; details: 5 μM, serum free (–) medium, 37 °C
# Procedure: HeLa cells (2.0 × 10^5 cells) seeded in 35-mm glass-bottomed dishes (Iwaki) were cultured at a 37 °C incubator for 24 h. The cells were then incubated with peptide in α-MEM( +) and α-MEM(–) for 30 min at 37 °C or 4 °C. After washing with PBS( +) containing 0.5% (w/v) heparin, intracellular distribution of the fluorescently-labelled peptides was analysed without fixing using a confocal microscope (FV1000, Olympus). For time-lapse imaging, the cells were placed at 37 °C in a microchamber (MI-IBC-IF, Olympus) attached on the stage of the inverted microscope. The cells were then treated with 5 µM of Dabcyl–Arg6–Lys(Rh)–NH2 or Dabcyl–Arg4–Lys(Cf)–NH2 in α-MEM( +) or α-MEM(–). Time 0 represents the image immediately after the addition of conjugates.
# CHO-K1 cells [1] = assay: Absolute quantification of total internalised peptide by fluorometry; details: for Total (37 °C–4 °C) (pmoles) Endocyt. / 4 °C/37 °C (Fluoro): CHO-K1, 60 min; for Total (37 °C–4 °C) (pmoles) Endocyt.: difference of fluorometry values at 37 °C and 4 °C; for 4 °C/37 °C (Fluoro): internalisation ratio by fluorometry; for Total 4 °C (pmoles) Transloc. / Total 37 °C (pmoles) Endocyt. + Transloc.: one million CHO-K1 cells, DMEM-F12, 60 min, cell lysis, fluorometry 525 nm vs calibration curve, mean values; for Total 4 °C (pmoles) Transloc.: pronase wash; for Total 37 °C (pmoles) Endocyt. + Transloc.: trypsin wash
# Procedure: We used the quantification method described earlier (Illien et al. [2016]). […] After incubation with peptides and washing the cells with HBSS, 500 μL 0.05% trypsin/EDTA 0.05% (37 °C) or 500 µL pronase 0.05% in 100 mM Tris pH 7.4 (4 °C) was added for 5 min to hydrolyze the remaining extracellular peptide, the membrane-bound peptide and to detach cells. After addition of 100 µL enzyme inhibitors (complete mini at 4 °C (Roche) or trypsin inhibitor (soybean inhibitor 5 mg/mL) at 37 °C mixed with 100 μL bovine serum albumin (1 mg/mL), cells were transferred into a microtube, centrifuged, washed with 1 mL 50 mM Tris buffer pH 7.4, 0.1% BSA, and lysed in 200 μL 50 mM Tris pH 7.4, 1 M NaCl, 1% Nonident P40. The samples were then sonicated for 15 min (to homogenise samples) and centrifugated for 10 min at 16.000 g. Fluorescence intensity in the supernatants was monitored with a MOS 200 M fluorimeter (Biologic SAS) and the maximal intensity was detected around λ = 525 nm. The maximal intensity was retained for the calibration curve and for quantification of samples. The amount of internalised peptides was calculated by comparing the fluorescence intensity of the sample with the calibration curve. For the calibration curve, we prepared a range of peptide amounts (from 2 to 500 pmol) in the lysis buffer (50 mM Tris pH 7.4, 1 M NaCl, 1% Nonidet P40) in the presence of one million suspended cells. The samples were sonicated 15 min and centrifuged at 16.000 g for 10 min. Fluorescence intensity in the supernatants was monitored with a MOS 200 M fluorimeter (Biologic SAS, France) and the maximal intensity was detected around λ = 525 nm. The fluorescence signal of peptides only was obtained by subtracting the fluorescence intensity of cell lysates (autofluorescence) from the fluorescence intensity of the sample.
# CHO-K1 cells [2] = assay: Relative quantification of total internalised peptide by flow cytometry; details: CHO-K1, 1 h, DMEM-F12, internalisation ratio by flow cytometry, intact cells, 20.000 cells
# Procedure: After incubation and washing the cells with HBSS, 500 μL 0.05% trypsin/EDTA 0.05% (37 °C) or 500 µL pronase 0.05% in 100 mM Tris-buffer (4 °C) was added for 5 min to hydrolyze the remaining extracellular peptide, the membrane-bound peptide and to detach cells. After addition of 100 µL enzyme inhibitors (complete mini at 4 °C (Roche) or trypsin inhibitor (soybean inhibitor 5 mg/mL) at 37 °C mixed with 100 μL bovine serum albumin (1 mg/mL). Cells were transferred into a microtube, centrifuged, washed with 1 mL 50 mM Tris-buffer pH 7.4, 0.1% BSA, and the cell pellet was suspended in 400 μL of PBS. The fluorescence of individual cells was analysed with a FACS Calibur flow cytometer. 20.000 cells were measured for each experimental condition. The mean fluorescence of a sample was obtained by subtracting the autofluorescence of cells from the measured mean fluorescence of cells in the presence of the peptide.
# CHO-K1 cells [3] = assay: In vitro cytotoxicity assay (CCK-8); assay type: cell-based, Chinese Hamster; details: different concentrations (0-20 µM), 1 h, 37 °C
# Procedure: Cytotoxicity was determined with the Cell Counting Kit 8 (CCK-8) from Dojindo Molecular Technologies using CHO-K1 cells. This colorimetric assay allows to measure the viability of cells. 96-well plates were inoculated with 100 μL/well of a suspension of cells (2 × 10^4 cells/well). […] After washing, the cells were incubated with 100 μL of 10% CCK-8 in DMEM for 3 h and the absorbance was measured at λ= 450 nm with a microplate reader (Polarstar Optima). Controls corresponded to untreated cells with DMEM (negative control, 100% viability) and cells treated with 0.1% of Triton X-100 (positive control, 0% viability).
structure (smiles),measurement,setting,value
CN(C)c1ccc(/N=N/c2ccc(C(=O)N[C@@H](CCCNC(=N)N)C(=O)N[C@@H](CCCNC(=N)N)C(=O)N[C@@H](CCCNC(=N)N)C(=O)N[C@@H](CCCNC(=N)N)C(=O)N[C@@H](CCCNC(=N)N)C(=O)N[C@@H](CCCNC(=N)N)C(=O)N[C@@H](CCCCNC(=O)c3ccc4c(c3)C(=O)OC43c4ccc(O)cc4Oc4cc(O)ccc43)C(N)=O)cc2)cc1 [Dabcyl–Arg6–Lys(Cf)–NH2] (X1-RRRRRRK(5FAM)-NH2),"Cellular uptake, times higher than that of octaarginine","HL-60 cells; HL-60, 5 μM",4 times
same,"Cellular uptake, times higher than that of octaarginine","HL-60 cells; HL-60, 10 μM",1.5 times
same,Time of binding to the cell membrane,HeLa cells,0.5 min
same,Time of internalisation,HeLa cells,≤ 1.5 min
same,Total (37 °C–4 °C) (pmoles) Endocyt.,CHO-K1 cells [1]; [peptide] 1 μM,1.9 pmol
same,4 °C/37 °C (Fluoro),CHO-K1 cells [1]; [peptide] 1 μM,0.25
same,Total 4 °C (pmoles) Transloc.,CHO-K1 cells [1]; [peptide] 1 μM,0.6 ± 0.04 pmol
same,Total 37 °C (pmoles) Endocyt. + Transloc.,CHO-K1 cells [1]; [peptide] 1 μM,2.5 ± 0.2 pmol
same,Total (37 °C–4 °C) (pmoles) Endocyt.,CHO-K1 cells [1]; [peptide] 2.5 μM,22 pmol
same,4 °C/37 °C (Fluoro),CHO-K1 cells [1]; [peptide] 2.5 μM,0.08
same,Total 4 °C (pmoles) Transloc.,CHO-K1 cells [1]; [peptide] 2.5 μM,1.9 ± 0.3 pmol
same,Total 37 °C (pmoles) Endocyt. + Transloc.,CHO-K1 cells [1]; [peptide] 2.5 μM,24 ± 1.3 pmol
same,Total (37 °C–4 °C) (pmoles) Endocyt.,CHO-K1 cells [1]; [peptide] 5 μM,53 pmol
same,4 °C/37 °C (Fluoro),CHO-K1 cells [1]; [peptide] 5 μM,0.10
same,Total 4 °C (pmoles) Transloc.,CHO-K1 cells [1]; [peptide] 5 μM,6.1 ± 0.8 pmol
same,Total 37 °C (pmoles) Endocyt. + Transloc.,CHO-K1 cells [1]; [peptide] 5 μM,59 ± 2.5 pmol
same,Total (37 °C–4 °C) (pmoles) Endocyt.,CHO-K1 cells [1]; [peptide] 10 μM,131 pmol
same,4 °C/37 °C (Fluoro),CHO-K1 cells [1]; [peptide] 10 μM,0.12
same,Total 4 °C (pmoles) Transloc.,CHO-K1 cells [1]; [peptide] 10 μM,18 ± 2 pmol
same,Total 37 °C (pmoles) Endocyt. + Transloc.,CHO-K1 cells [1]; [peptide] 10 μM,149 ± 6 pmol
same,4 °C/37 °C (Flow cyto.),CHO-K1 cells [2]; [peptide] 1 μM,0.14
same,4 °C/37 °C (Flow cyto.),CHO-K1 cells [2]; [peptide] 2.5 μM,0.04
same,4 °C/37 °C (Flow cyto.),CHO-K1 cells [2]; [peptide] 5 μM,0.05
same,4 °C/37 °C (Flow cyto.),CHO-K1 cells [2]; [peptide] 10 μM,0.04
same,Cytotoxic effect on CHO-K1 cells,CHO-K1 cells [3],no cytotoxic effect
